Test results taken from patent US20240228469A1, “PCSK9 INHIBITORS AND METHODS OF USE THEREOF” (AstraZeneca AB, priority 2022, published 2024).
pEC50, pIC50: −log10 of the molar value.

Experiments:
PCSK9 [1] = target: T1, PCSK9 (Homo sapiens, UniProt Q8NBP7, G670E/V474I); assay: biochemical
[2] = target: GSK3β (Glycogen synthase kinase-3 beta) (Homo sapiens, UniProt P49841); assay: Assay 6 GSK3β assay (ThermoFisher Z-Lyte FRET); type: biochemical; conditions: ATP Conc: 10 μM, geometric mean; read-out: Assay 6 (GSK3β FRET-Z-Lyte Cr) GMean IC50
Sequence of GSK3β (Glycogen synthase kinase-3 beta) (P49841 whole entry): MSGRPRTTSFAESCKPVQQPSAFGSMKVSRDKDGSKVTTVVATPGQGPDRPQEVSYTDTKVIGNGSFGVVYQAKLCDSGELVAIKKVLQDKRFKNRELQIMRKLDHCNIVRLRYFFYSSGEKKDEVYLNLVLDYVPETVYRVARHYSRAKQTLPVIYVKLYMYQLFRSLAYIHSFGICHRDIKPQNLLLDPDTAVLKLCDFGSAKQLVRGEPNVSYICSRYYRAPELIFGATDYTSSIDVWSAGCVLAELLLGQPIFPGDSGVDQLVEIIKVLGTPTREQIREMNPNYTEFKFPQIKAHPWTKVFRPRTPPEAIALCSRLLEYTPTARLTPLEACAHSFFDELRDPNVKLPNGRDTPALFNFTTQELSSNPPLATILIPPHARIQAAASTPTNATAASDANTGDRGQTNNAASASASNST
How it was run: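 Z-Lyte FRET: 0.22-0.92 ng kinase with 2 μM Ser/Thr 09 peptide in HEPES pH 7.5, MgCl2, EGTA, 60 min at room temperature, then 60 min development. Compounds in 1% DMSO, 10-point 3-fold series from 10 μM; sigmoidal dose-response fit.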

PCSK9 [3] = target: T1, PCSK9; assay: Assay 3 PCSK9 LDL-C uptake assay in HepG2 cells; type: cell-based; set-up: TEV site (C); His6 (C); host or cells: added to HepG2 (ATCC #HB-8065); conditions: 125 nM PCSK9, pHrodo Red-LDL, read-out: Assay 3 LDL uptake potency
From the text: This assay measures for PCSK9 antagonist activity based on a test compound's capacity to restore LDL-C-uptake in HepG2 cells. The assay is based on exogenous PCSK9 and LDL-C complexed with a pH-sensitive dye. Outside the cells, at neutral pH, the pHrodo Red-LDL is dimly fluorescent but upon LDLR mediated endocytosis it fluoresces brightly. PCSK9 traffics the LDLR to intracellular degradation and reduces uptake of LDL-C. Inhibition of PCSK9 reduces LDLR degradation and the increased LDL-C uptake is quantified by fluorescence microscopy.
• Cell medium: MEM supplemented with 10% FBS, 1×NEAA and Sodium Pyruvate • Assay medium: OptiMem supplemented with penicillin/streptomycin • Cells: HepG2 (ATCC #HB-8065)
• 1. Cryopreserved HepG2 cells were thawed in assay medium and centrifuged for 5 min at 250 g. Supernatant was discarded and the cell pellet resuspended in cell medium and counted with a Nucleocounter. Cells were again centrifuged 5 min at 250 g and the pellet was resuspended to 500000 cells/mL in assay medium. • 2. 20 μL of above cell mix was dispensed into black μclear TC treated 384 well plates with Multidrop Combi and left at room temperature for 20 minutes. • 3. Plates were incubated at 37° C., 5% CO2 for 24 h
• 1. Test compounds were prepared in concentration response in DMSO with a half-log dilution factor in DMSO in Echo 384 LDV plates starting at 10 mM. • 2. 30 nL of above test compounds were dispensed with Echo 655 to cells for a top concentration of 10 μM • 3. 10 μL PCSK9 in assay medium was dispensed to cells with Multidrop Combi for 125 nM final concentration in the wells. • 4. Plates were incubated at 37° C., 5% CO2 for 24 h
• 1. 10 μL pHrodo Red-LDL in assay medium was dispensed to cells with Multidrop Combi for […] • 2. Plates were incubated at 37° C., 5% CO2 and imaged with the Incucyte S3 after 4 h and 24 h
Image data was processed using Incucyte 2021, a software to identify cells and red fluorescent intensity. Screener was used to further process data. Data was normalized as % effect of the signal between median values of the on-plate controls of DMSO and 100 nM Evolocumab according to the formula % effect=−100*(x−DMSO)/(Evolocumab−DMSO) where x equals the measured signal. Concentration response data of the normalized values were fitted using a four-parameter logistic fit.

[4] = target: T2, potassium ion channel hERG (Homo sapiens, UniProt Q12809); assay: Assay 5 hERG assay (patch clamp, CHO cells over-expressing hERG); type: cell-based; conditions: SyncroPatch 384PE, room temperature, geometric mean, read-out: Assay 5 (hERG Hu CHO if EPh CR-Syncro) GMean IC50
T2 construct: expressed in transfected cells; host or cells: Chinese hamster ovary K1 (CHO)
T2 sequence (Q12809 whole entry): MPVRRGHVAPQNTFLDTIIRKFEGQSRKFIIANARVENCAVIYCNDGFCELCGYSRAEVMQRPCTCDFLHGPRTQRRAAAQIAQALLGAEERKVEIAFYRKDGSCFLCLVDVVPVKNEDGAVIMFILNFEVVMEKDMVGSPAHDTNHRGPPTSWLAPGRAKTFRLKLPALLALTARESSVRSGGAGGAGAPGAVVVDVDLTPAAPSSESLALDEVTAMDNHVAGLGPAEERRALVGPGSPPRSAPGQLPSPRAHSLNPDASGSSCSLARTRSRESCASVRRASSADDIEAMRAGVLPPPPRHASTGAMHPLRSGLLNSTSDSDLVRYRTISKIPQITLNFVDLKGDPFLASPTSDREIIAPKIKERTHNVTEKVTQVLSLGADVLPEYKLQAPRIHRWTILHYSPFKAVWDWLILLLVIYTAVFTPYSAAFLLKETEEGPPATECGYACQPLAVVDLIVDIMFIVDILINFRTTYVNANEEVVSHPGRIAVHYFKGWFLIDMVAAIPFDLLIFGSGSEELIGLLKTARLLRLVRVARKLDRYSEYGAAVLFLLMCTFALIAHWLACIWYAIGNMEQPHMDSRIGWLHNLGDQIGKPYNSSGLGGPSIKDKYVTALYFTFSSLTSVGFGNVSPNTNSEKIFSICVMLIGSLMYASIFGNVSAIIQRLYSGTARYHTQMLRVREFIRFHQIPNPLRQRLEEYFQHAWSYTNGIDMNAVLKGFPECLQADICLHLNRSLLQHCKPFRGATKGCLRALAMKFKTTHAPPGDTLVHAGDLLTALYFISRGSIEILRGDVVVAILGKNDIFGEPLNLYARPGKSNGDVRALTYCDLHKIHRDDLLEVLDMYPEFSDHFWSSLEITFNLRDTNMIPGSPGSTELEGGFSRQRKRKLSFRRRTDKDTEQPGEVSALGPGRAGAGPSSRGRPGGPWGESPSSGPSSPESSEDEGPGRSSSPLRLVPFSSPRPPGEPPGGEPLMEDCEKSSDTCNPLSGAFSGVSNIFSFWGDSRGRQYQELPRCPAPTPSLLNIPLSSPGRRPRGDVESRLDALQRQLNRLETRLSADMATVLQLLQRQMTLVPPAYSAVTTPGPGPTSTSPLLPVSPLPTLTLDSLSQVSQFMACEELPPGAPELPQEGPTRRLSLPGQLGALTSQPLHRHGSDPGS
How it was run: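 hERG currents recorded by automated patch clamp at room temperature in CHO-K1 cells, 6-point cumulative concentrations. SyncroPatch runs used KF-based internal (pH 7.2) and NMDG-containing external solution (pH 7.4), 0.33% DMSO; QPatchII runs used 2% or 0.4% DMSO. Only wells meeting seal-resistance and current-size criteria kept.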

T1 sequence (Q8NBP7 with tags, fused parts or gaps V474I/G670E): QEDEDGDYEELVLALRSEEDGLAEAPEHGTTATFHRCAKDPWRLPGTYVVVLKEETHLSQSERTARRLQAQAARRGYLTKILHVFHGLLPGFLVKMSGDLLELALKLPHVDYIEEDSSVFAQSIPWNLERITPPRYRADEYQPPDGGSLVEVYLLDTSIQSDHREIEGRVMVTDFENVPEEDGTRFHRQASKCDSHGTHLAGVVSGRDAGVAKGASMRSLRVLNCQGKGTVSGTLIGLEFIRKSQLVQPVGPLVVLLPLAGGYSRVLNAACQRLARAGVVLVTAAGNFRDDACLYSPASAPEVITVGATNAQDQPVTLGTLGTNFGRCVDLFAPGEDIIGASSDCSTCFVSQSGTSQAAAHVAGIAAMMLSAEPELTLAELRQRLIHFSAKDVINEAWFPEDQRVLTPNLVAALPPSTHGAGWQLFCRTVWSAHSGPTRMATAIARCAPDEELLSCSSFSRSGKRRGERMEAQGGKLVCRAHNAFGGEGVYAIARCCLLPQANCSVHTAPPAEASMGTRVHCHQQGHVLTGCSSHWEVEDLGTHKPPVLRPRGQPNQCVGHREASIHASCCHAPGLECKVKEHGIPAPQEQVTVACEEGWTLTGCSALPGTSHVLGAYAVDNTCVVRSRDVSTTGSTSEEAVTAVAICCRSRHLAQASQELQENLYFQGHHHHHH

SMILES | pIC50 (PCSK9 [1]) | pIC50 [2] | pEC50 (PCSK9 [3]) | pIC50 [4]
O=C(NC1COC1)c1cnc(N[C@H]2CC[C@H](Nc3ccc(-n4cccc(Cl)c4=O)cn3)C2)nn1 [Example 157, 3-(((1S,3S)-3-((3-Chloro-2-oxo-2H-[1,3′-bipyridin]-6′-yl)amino)cyclopentyl)amino)-N-(oxetan-3-yl)-1,2,4-triazine-6-carboxamide] | 8.68 | 5.11 | 7.00 | < 4.40
O=C(NC1COC1)c1cnc(N[C@H]2CC[C@H](Nc3ccc(-n4cc(Cl)ccc4=O)cn3)C2)nn1 [Example 158, 3-(((1S,3S)-3-((5-Chloro-2-oxo-2H-[1,3′-bipyridin]-6′-yl)amino)cyclopentyl)amino)-N-(oxetan-3-yl)-1,2,4-triazine-6-carboxamide] | 8.12 | < 5.00 | 6.70 | < 4.40
N#Cc1cccn(-c2ccc(N[C@H]3CC[C@H](Nc4ncc(C(=O)NC5COC5)nn4)C3)nc2)c1=O [Example 159, 3-(((1S,3S)-3-((3-Cyano-2-oxo-2H-[1,3′-bipyridin]-6′-yl)amino)cyclopentyl)amino)-N-(oxetan-3-yl)-1,2,4-triazine-6-carboxamide] | 8.39 | < 5.00 | 7.00 | < 4.40
O=C(NC1COC1)c1cnc(N[C@H]2CC[C@H](Nc3ccc(-n4cccc(OC(F)(F)F)c4=O)cn3)C2)nn1 [Example 160, N-(Oxetan-3-yl)-3-(((1S,3S)-3-((2-oxo-3-(trifluoromethoxy)-2H-[1,3′-bipyridin]-6′-yl)amino)cyclopentyl)amino)-1,2,4-triazine-6-carboxamide] | 8.16 | < 5.00 | 6.70 | < 4.40
O=C(NC1COC1)c1cnc(N[C@H]2CC[C@H](Nc3ccc(-n4cccc(C(F)(F)F)c4=O)cn3)C2)nn1 [Example 161, N-(Oxetan-3-yl)-3-(((1S,3S)-3-((2-oxo-3-(trifluoromethyl)-2H-[1,3′-bipyridin]-6′-yl)amino)cyclopentyl)amino)-1,2,4-triazine-6-carboxamide] | 8.42 | < 5.00 | 7.00 | < 4.40
O=c1c(OC(F)F)cccn1-c1ccc(N[C@H]2CC[C@H](Nc3ncc(C4CC4)nn3)C2)nc1 [Example 165, 6′-(((1S,3S)-3-((6-Cyclopropyl-1,2,4-triazin-3-yl)amino)cyclopentyl)amino)-3-(difluoromethoxy)-2H-[1,3′-bipyridin]-2-one] | 8.89 | 5.29 | 7.00 | 4.59
O=c1ccc(OC(F)F)cn1-c1ccc(N[C@H]2CC[C@H](Nc3ncc(C4CC4)nn3)C2)nc1 [Example 166, 6′-(((1S,3S)-3-((6-Cyclopropyl-1,2,4-triazin-3-yl)amino)cyclopentyl)amino)-5-(difluoromethoxy)-2H-[1,3′-bipyridin]-2-one] | 8.14 | 5.66 | 6.52 | 4.42
COc1ccn(-c2ccc(N[C@H]3CC[C@H](Nc4ncc(C)nn4)C3)nc2)c(=O)c1 [Example 180, 4-Methoxy-6′-(((1S,3S)-3-((6-methyl-1,2,4-triazin-3-yl)amino)cyclopentyl)amino)-2H-[1,3′-bipyridin]-2-one] | 8.22 | < 5.00 | 6.52 | < 4.40
Cc1cnc(N[C@H]2CC[C@H](Nc3ccc(-n4ccc(Cl)cc4=O)cn3)C2)nn1 [Example 182, 4-Chloro-6′-(((1S,3S)-3-((6-methyl-1,2,4-triazin-3-yl)amino)cyclopentyl)amino)-2H-[1,3′-bipyridin]-2-one] | 8.03 | < 5.00 | 6.22 | < 4.40
Cc1cnc(N[C@H]2CC[C@H](Nc3ccc(-n4cc(OC(F)F)ccc4=O)cn3)C2)nn1 [Example 185, 5-(Difluoromethoxy)-6′-(((1S,3S)-3-((6-methyl-1,2,4-triazin-3-yl)amino)cyclopentyl)amino)-2H-[1,3′-bipyridin]-2-one] | 7.89 | 5.62 | 6.70 | < 4.40
Cc1cnc(N[C@H]2CC[C@H](Nc3ccc(-n4cccc(-c5cn[nH]c5)c4=O)cn3)C2)nn1 [Example 199, 6′-(((1S,3S)-3-((6-Methyl-1,2,4-triazin-3-yl)amino)cyclopentyl)amino)-3-(1H-pyrazol-4-yl)-2H-[1,3′-bipyridin]-2-one] | 8.70 | < 5.00 | 7.00 | < 4.40
Cc1cnc(N[C@H]2CC[C@H](Nc3ccc(-n4cccc(-c5c[nH]nn5)c4=O)cn3)C2)nn1 [Example 200, 6′-(((1S,3S)-3-((6-Methyl-1,2,4-triazin-3-yl)amino)cyclopentyl)amino)-3-(1H-1,2,3-triazol-4-yl)-2H-[1,3′-bipyridin]-2-one] | 8.60 | < 5.00 | 7.00 | < 4.40
Cc1cnc(N[C@H]2CC[C@H](Nc3ccc(-n4cc(-c5cnn(C)c5)ccc4=O)cn3)C2)nn1 [Example 201, 6′-(((1S,3S)-3-((6-Methyl-1,2,4-triazin-3-yl)amino)cyclopentyl)amino)-5-(1-methyl-1H-pyrazol-4-yl)-2H-[1,3′-bipyridin]-2-one] | 8.07 | 5.62 | 6.70 | < 4.40
Cc1cnc(N[C@H]2CC[C@H](Nc3ccc(-n4cc(-c5cn[nH]c5)ccc4=O)cn3)C2)nn1 [Example 202, 6′-(((1S,3S)-3-((6-Methyl-1,2,4-triazin-3-yl)amino)cyclopentyl)amino)-5-(1H-pyrazol-4-yl)-2H-[1,3′-bipyridin]-2-one] | 8.43 | 5.12 | 7.00 | < 4.40
Cc1cnc(N[C@H]2CC[C@H](Nc3ccc(-n4cc(-c5c[nH]nn5)ccc4=O)cn3)C2)nn1 [Example 208, 6′-(((1S,3S)-3-((6-Methyl-1,2,4-triazin-3-yl)amino)cyclopentyl)amino)-5-(1H-1,2,3-triazol-4-yl)-2H-[1,3′-bipyridin]-2-one] | 8.19 | 5.77 | 6.52 | < 4.40
Cc1cnc(N[C@H]2CC[C@H](Nc3ccc(-n4c(=O)n(C)c5cc(C#N)ccc54)cn3)C2)nn1 [Example 211, 3-Methyl-1-(6-(((1S,3S)-3-((6-methyl-1,2,4-triazin-3-yl)amino)cyclopentyl)amino)pyridin-3-yl)-2-oxo-2,3-dihydro-1H-benzo[d]imidazole-5-carbonitrile] | 8.85 | < 5.00 | 7.00 | 4.78
Cc1cnc(N[C@H]2CC[C@H](Nc3ccc(-n4c(=O)n(C)c5ccc(C#N)nc54)cn3)C2)nn1 [Example 213, 1-Methyl-3-(6-(((1S,3S)-3-((6-methyl-1,2,4-triazin-3-yl)amino)cyclopentyl)amino)pyridin-3-yl)-2-oxo-2,3-dihydro-1H-imidazo[4,5-b]pyridine-5-carbonitrile] | 8.80 | < 5.00 | 6.70 | < 4.40
Cc1cnc(N[C@H]2CC[C@H](Nc3ccc(-n4c(=O)n(C)c5cc(C#N)cnc54)cn3)C2)nn1 [Example 214, 1-Methyl-3-(6-(((1S,3S)-3-((6-methyl-1,2,4-triazin-3-yl)amino)cyclopentyl)amino)pyridin-3-yl)-2-oxo-2,3-dihydro-1H-imidazo[4,5-b]pyridine-6-carbonitrile] | 8.47 | < 5.00 | 6.15 | < 4.40
